In experiment [1] the target is T1, human TGR5 (Homo sapiens, UniProt Q8TDU6).
T1 construct: host or cells: CHO cells (ATCC)
T1 sequence (Q8TDU6 1-330): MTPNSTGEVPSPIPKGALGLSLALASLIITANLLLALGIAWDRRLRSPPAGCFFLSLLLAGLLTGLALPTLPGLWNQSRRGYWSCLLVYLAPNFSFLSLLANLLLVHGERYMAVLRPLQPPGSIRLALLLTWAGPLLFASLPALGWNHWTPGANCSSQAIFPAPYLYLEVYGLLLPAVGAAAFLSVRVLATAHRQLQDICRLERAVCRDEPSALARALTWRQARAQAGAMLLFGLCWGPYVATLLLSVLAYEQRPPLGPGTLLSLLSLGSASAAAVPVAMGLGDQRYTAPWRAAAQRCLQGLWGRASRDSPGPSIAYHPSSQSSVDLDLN
In words: cAMP Responsive Element (CRE)-Reporter Assay. In kind it is cell-based. Conditions: luciferase activity relative to vehicle control, five hours, CHO cells transfected with human TGR5 and CRE-luciferase. As for the experimental part:
(A) cAMP Responsive Element (CRE)-Reporter Assay:
CHO cells (ATCC) were transfected with human TGR5 (oriGene) and CRE-luciferase reporter vector. Transfected cells were treated with vehicle control or test compounds (Conc 10 μM) for five hours and then lysed. Cell lysates were monitored for luciferase acivity. Increase in luciferase activity is considered as a result of TGR5 activation. Results were expressed as fold induction as compared to vehicle control.
Results are summarized in Table 2 where, + indicates 1.5-2 fold while ++, +++, ++++ indicate 2-3 fold, 3-4 fold, and >4 fold induction respectively relative to vehicle control when tested at 10 μM concentration.
On the technique in general: In a reporter assay the amount or activity of a reporter protein is the signal.

Experiment [2] concerns the target T1, human TGR5. Briefly: cAMP Measurement Assay (Alphascreen). In kind it is cell-based. To be noted: cAMP levels, CHO cells transfected with human TGR5, one hour. As to the method:
(B) cAMP Measurement Assay:
CHO cells (ATCC) were transfected with human TGR5 vector (oriGene). Transfected cells were treated with vehicle control or test compounds for one hour and then lysed. Levels of cAMP were measured in cell lysates employing Alphascreen cAMP assay kit (Perkin Elmer) and results were expressed EC50 values which are summarized in Table 3.
In general terms: In Alpha technology, singlet oxygen from a donor bead excites a nearby acceptor bead.

For experiment [3], the system named is Human enteroendocrine cell-line (NCI-H716). In words: Measurement of Glucagon Like Peptide-1 (GLP-1) secretion. In kind it is cell-based. Conditions: NCI-H716 cells, one hour, with respect to vehicle control. As for the experimental part: (C) Measurement of Glucagon Like Peptide-1 (GLP-1):
Human enteroendocrine cell-line (NCI-H716) were incubated with vehicle or test compounds for one hour. At the end of incubation period, levels of secreted GLP-1 in culture medium were measured by GLP-1 ELISA kit (Millipore). Results are summarized as fold increase in GLP secretion with respect to vehicle control in Table 4.

The subject of experiment [4] is Diabetic Hamster. In words: Single dose efficacy on glucose tolerance (OGTT) in diabetic hamster. In kind it is in vivo. To be noted: Mesocricetus auratus, read-out: Decrease in AUC of glucose % change w.r.t. vehicle control group. As to the method:
i) Evaluation of Single Dose Efficacy of Test Compounds on Glucose Tolerance:
Thus efficacy can be assessed through the effect of test compounds on lowering of plasma glucose during OGTT through stimulating glucose stimulated insulin secretion.
The potential of test compounds in lowering of Plasma Glucose was evaluated in Oral glucose tolerance test (OGTT) in Diabetic Hamster Model, where diabetes has been induced by administration of low dose of Streptozotocin (STZ) to the High fat diet (HFD) fed glucose intolerant animals. The diabetic hamsters show impaired glucose stimulated insulin secretion and higher plasma glucose excursions than the normal animals, which remains elevated beyond 2 hrs post glucose load. Thus the animal model can be used for evaluating the potential of test compounds to lower plasma glucose through stimulating glucose stimulated insulin secretion. On the day of study post 6 hrs of fasting, test compounds or vehicle was administered orally at dose volume of 2 ml/kg to the hamsters of the respective treatment groups. Subsequent to dosing, a pre-glucose load blood sample was taken. A glucose load of 40% solution at 5 ml/Kg dose volume was administered orally. Blood samples through retroorbital plexus were taken at 15, 30 60 & 120 min. post glucose load and plasma was separated for glucose measurement. Post glucose load percentage change in plasma glucose and AUC of % change glucose by the treatment was assessed.

Experiment [5] deals with Diabetic Hamster. In words: Efficacy study on repeated dosing in diabetic hamster. Format: in vivo. Conditions: for HOMA-IR: from fasting glucose and insulin. As to the method:
(§1) ii) Evaluation of Efficacy of Test Compounds on Repeated Dosing in Diabetic Hamster and DIO Mice. […]
a) Efficacy Study in Diabetic Hamster
Diabetic hamsters were randomized to two treatment groups viz. vehicle treated and test compound treated group. Then the animals were treated with compound 7 of present invention or vehicle for 2 weeks to assess the efficacy potential of the compound. Effect of treatment on glucose excursion and insulin secretion during OGTT, change in body weight & fasting and random plasma triglycerides (TG) was evaluated during the treatment period. The effect of repeated administration of compound on energy expenditure was evaluated through monitoring oxygen consumption (VO2) over 21 hrs period by indirect calorimetry (Oxymax System, Columbus Instruments). HOMA-IR an index of insulin resistance was estimated using fasting glucose and insulin levels estimated during OGTT.
Similarly, the study was conducted using compound no 50 of the present invention for the duration of four week period in Diabetic hamsters.

Another experiment deals with DIO mice. Briefly: Efficacy study on repeated dosing in DIO mice. Format: in vivo. To be noted: od; for % Change in body wt from basal: repeated administration. As for the experimental part: as §1
b) Efficacy Study in DIO Mice
Male C57B1/6J mice were made insulin resistant by feeding on High fat diet (45.5% Kcal from Fat, Research Diet) from the age of 6-8 week onwards. After being on High fat diet for 6-8 weeks the animals with similar body weights & fasting plasma glucose were further randomized into treatment groups. Then the animals were treated with compounds 7 to assess the efficacy potential during treatment duration. Effect of treatment on glucose excursion and insulin secretion during OGTT, Fasting Plasma Glucose & Insulin, lipid profile and body weight were evaluated. The compound for enhancing energy expenditure was evaluated by monitoring oxygen consumption (VO2) and carbon dioxide release (VCO2) over 24 hrs period by indirect calorimetry (Oxymax System, Columbus Instruments).
Similarly, the study was conducted in DIO mice with compound no 50 of the present invention.

The mark [6] stands for this setting: 20 mg/kg, po, bid, 2 weeks, listed as compound no. 7, 20 mg/kg.
The mark [7] stands for this setting: compound no. 7 repeated dosing, 2 weeks.
Setting [8] is: 1.5 mg/kg, listed as compound no. 7, 1.5 mg/kg.
Where [9] appears, read: 6 mg/kg, i.p. OD, four week, listed as compound no. 50, 6 mg/kg.
[10] abbreviates: compound no. 50 repeated dosing, four week.
Setting [11] is: 9 mg/kg, listed as compound no. 50, 9 mg/kg.

We go through three compounds from patent publication US20150126530A1, “Novel Substituted Imidazopyrimidines as Gpbar1 Receptor Modulators” (Torrent Pharmaceuticals Limited., priority 2011, published 2015).

In general, fold induction refers to the ratio of treated to control signal. The EC50 is the concentration that produces a half-maximal response. A higher EC50 goes with a less potent agent.

For the compound `CN(C(=O)c1c(-c2ccc(F)cc2)nc2ncccn12)c1ccc(Cl)cc1` [Compound no. 7, N-(4-chlorophenyl)-2-(4-fluorophenyl)-N-methylimidazo[1,2-a]pyrimidine-3-carboxamide], at human TGR5 [1], the fold induction at 10 µM was more than 4. This compound gave an EC50 on human TGR5 [2] of 90 nM. Besides, the “Fold increase in GLP Release” value in experiment [3] is reported as 3.72 fold. Moreover, the inhibition in vivo at 38 mg/kg in the experiment with Diabetic Hamster [4] (single oral dose 38 mg/kg) was 39%. Besides, in the experiment on Diabetic Hamster [5] (20 mg/kg, po, bid, 2 weeks), the “% Change in body wt fro basal” value is recorded as −5.2 ± 1.6%, the “AUC_Insulin % change during OGTT” value is listed as 2280.6 ± 428.8, the “AUC_glucose % change during OGTT” value is 12714.43 ± 912 and the “Fasting plasma TG” value stood at 188.35 ± 3.7 mg/dL. Also, in the experiment on Diabetic Hamster [5] (20 mg/kg, po, bid, 2 weeks), the “Random plasma T” value stood at 344.38 ± 90.3 mg/dL and the HOMA-IR is given as 15.6 ± 2.1. In the experiment on Diabetic Hamster [5] (setting [6]), the HOMA-IR entry is “decrease in HOMA-IR”, the “% Change in body wt fro basal” value is given as “reduced body weight”, the “AUC_Insulin % change during OGTT” value is “improved insulin secretion” and the “AUC_glucose % change during OGTT” value is recorded as “reduced glucose excursion”. For the same compound, the “Fasting plasma TG” value with Diabetic Hamster [5] (setting [6]) was “decreased plasma TG levels”. In the experiment with Diabetic Hamster [5] (20 mg/kg, po, bid, 2 weeks, indirect calorimetry over 21 hrs), the Oxygen consumption is 22.551 ± 0.638 mL/min/kg. In the experiment with Diabetic Hamster [5] (20 mg/kg, po, bid, 2 weeks, indirect calorimetry over 21 hrs, listed as compound no. 7, 20 mg/kg), the Oxygen consumption entry is reported as “increased energy expenditure”. Also, in the experiment on Diabetic Hamster [5] (setting [7]), the “decrease in LDL” value was found to be 14%, the “decrease in non HDL” value worked out at 24%, the “improvement in HDL:LDL ratio” value is reported as 24% and the “increase in HDL” value is 7%. Moreover, in the experiment with DIO mice (1.5 mg/kg), the “AUC_Insulin % change during OGTT” value came to 5431.0 ± 920.9, the “AUC_glucose % change during OGTT” value is 4526.7 ± 876.8, the “Fasting plasma TG” value came to 40.4 ± 2.3 mg/dL and the HOMA-IR is reported as 4.7 ± 1.68. Also, in the experiment with DIO mice (1.5 mg/kg), the “% Change in body wt from basal” value is on record as −3.19 ± 1.32%. This compound also displayed an Oxygen consumption in the experiment with DIO mice (1.5 mg/kg, indirect calorimetry over 24 hrs) of 51.938 ± 1.768 mL/min/kg. The Oxygen consumption entry in the experiment on DIO mice (1.5 mg/kg, indirect calorimetry over 24 hrs, listed as compound no. 7, 1.5 mg/kg) is “increased energy expenditure”. In the experiment on DIO mice (setting [8]), the “AUC_Insulin % change during OGTT” value is “improved insulin secretion”, the “AUC_glucose % change during OGTT” value is on record as “reduced glucose excursion”, the “Fasting plasma TG” value is reported as “decreased plasma TG levels” and the HOMA-IR result is listed as “decrease in HOMA-IR”. Further, in the experiment on DIO mice (setting [8]), the “% Change in body wt from basal” value was “reduced body weight”.
The compound `CN(C(=O)c1c(-c2cccc(C(F)(F)F)c2)nc2ncccn12)c1ccc(F)cc1` [Compound no. 33, N-(4-fluorophenyl)-N-methyl-2-[3-(trifluoromethyl)phenyl]imidazo[1,2-a]pyrimidine-3-carboxamide] came in with a fold induction at 10 µM at human TGR5 [1] of more than 4. On human TGR5 [2], the 50% effective concentration (EC50) came out at 155 nM. The “Fold increase in GLP Release” value in experiment [3] is recorded as 1.83 fold. The inhibition in vivo at 41 mg/kg in the experiment with Diabetic Hamster [4] (single oral dose 41 mg/kg) was 20%.
With `CN(C(=O)c1c(Oc2ccc(F)cc2)nc2ncccn12)c1ccc(Cl)cc1` [Compound no. 50, N-(4-chlorophenyl)-2-(4-fluorophenoxy)-N-methylimidazo[1,2-a]pyrimidine-3-carboxamide], the fold induction at 10 µM on human TGR5 [1] is more than 4. Further, a half-maximal effect at human TGR5 [2] (EC50) was put at 354 nM. For the same compound, the “Fold increase in GLP Release” value in experiment [3] is on record as 1.74 fold. Besides, the inhibition in vivo at 40 mg/kg in the experiment with Diabetic Hamster [4] (single oral dose 40 mg/kg) came to 10%. Also, in the experiment on Diabetic Hamster [5] (6 mg/kg, i.p. OD, four week), the “% Change in body wt from basal” value is −1.56%, the “AUC_glucose % change during OGTT” value came out at 6225.7, the “Fasting plasma TG” value was found to be 97.8 mg/dL and the Oxygen consumption was 25.0092 mL/min/kg. In addition, in the experiment on Diabetic Hamster [5] (setting [9]), the “% Change in body wt from basal” value was “reduced body weight”, the “AUC_glucose % change during OGTT” value is “reduced glucose excursion”, the “Fasting plasma TG” value was “decreased plasma TG levels” and the Oxygen consumption result is given as “increased energy expenditure”. Besides, in the experiment on Diabetic Hamster [5] (setting [10]), the “decrease in LDL” value came to 16%, the “decrease in non HDL” value is 24% and the “improvement in HDL:LDL ratio” value came out at 16%. Further, in the experiment on DIO mice (9 mg/kg), the “AUC_Insulin % change during OGTT” value amounted to 12938.8, the “AUC_glucose % change during OGTT” value was 7763.5, the HOMA-IR was found to be 1.96 and the Oxygen consumption was 46.125 mL/min/kg. The “% Change in body wt from basal” value with DIO mice (9 mg/kg) is on record as −3.29%. Moreover, in the experiment with DIO mice (setting [11]), the “AUC_Insulin % change during OGTT” value is reported as “improved insulin secretion”, the “AUC_glucose % change during OGTT” value is listed as “reduced glucose excursion”, the HOMA-IR result was “decrease in HOMA-IR” and the Oxygen consumption entry is on record as “increased energy expenditure”. Moreover, the “% Change in body wt from basal” value in the experiment with DIO mice (setting [11]) is “reduced body weight”.
